The term IC50 denotes the point on the concentration scale where inhibition reaches its midpoint. Read a low IC50 as inhibition by little substance.

T2 sequence (Q13946 whole entry): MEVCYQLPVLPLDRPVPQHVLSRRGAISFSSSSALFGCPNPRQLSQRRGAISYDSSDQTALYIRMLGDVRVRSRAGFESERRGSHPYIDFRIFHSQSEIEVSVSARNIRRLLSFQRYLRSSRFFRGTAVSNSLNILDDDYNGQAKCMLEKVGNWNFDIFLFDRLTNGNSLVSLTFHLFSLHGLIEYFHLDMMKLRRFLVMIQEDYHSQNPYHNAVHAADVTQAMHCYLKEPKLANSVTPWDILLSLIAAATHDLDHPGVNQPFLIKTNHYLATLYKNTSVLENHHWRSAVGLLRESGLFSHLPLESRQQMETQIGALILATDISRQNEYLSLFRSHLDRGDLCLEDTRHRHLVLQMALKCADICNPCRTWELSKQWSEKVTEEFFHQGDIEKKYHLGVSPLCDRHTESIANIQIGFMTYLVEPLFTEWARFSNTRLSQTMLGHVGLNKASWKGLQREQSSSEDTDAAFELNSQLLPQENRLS

The target of the first assay is T1, Human CB2 receptors (Homo sapiens, UniProt P34972).
T1 construct: expressed in transfected cells; host or cells: CHO cells
T1 sequence (P34972 whole entry): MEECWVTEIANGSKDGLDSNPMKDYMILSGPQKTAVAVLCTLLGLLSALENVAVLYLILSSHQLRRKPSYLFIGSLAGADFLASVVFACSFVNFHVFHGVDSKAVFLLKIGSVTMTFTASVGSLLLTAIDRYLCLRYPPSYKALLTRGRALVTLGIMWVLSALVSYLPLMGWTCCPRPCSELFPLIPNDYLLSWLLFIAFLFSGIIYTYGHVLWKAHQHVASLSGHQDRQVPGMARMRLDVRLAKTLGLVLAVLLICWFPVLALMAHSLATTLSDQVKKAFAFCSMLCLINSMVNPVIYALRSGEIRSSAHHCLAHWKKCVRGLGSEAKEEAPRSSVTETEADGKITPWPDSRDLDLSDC
Put plainly: In vitro signaling assay: inhibition of forskolin-induced cAMP production in human CB2 receptor expressing CHO cells. As to conditions: 10 μM forskolin, 15 minutes at room temperature. Format: cell-based. As to the method: Human CB2 receptors expressed CHO cells were used for the assays. Cells were dispersed seeded in 96-well plates in a density of 5×10^4 cells/well, and were subjected to experiment the next day. After removing the culture media 1 mM isobutylmethylxanthine (IBMX) solution was added, and cells were incubated for 10 minutes at room temperature. Next, a mixture of 10 μM forskolin and the compound of the present invention was added. After additional incubation for 15 minutes at room temperature, the culture supernatant was discarded and 200 μl of lysis reagent (attached to a cAMP EIA) was added. The amounts of cAMP of the lysate were determined by a cAMP EIA kit (Amersham) under conditions of the forskolin-induced cAMP production. The compound of the present invention was dissolved in DMSO and the solution was diluted to adjust the final concentration of DMSO to 0.1%. IC50 values were calculated from the inhibitory ratio of the compound of the present invention toward the amount of the forskolin-induced cAMP production. By the same experiment using CHO cells, it was confirmed that this inhibitory effect toward cAMP production by the compound was mediated via the human CB2 receptors.
Background: Changes in cAMP serve as a functional read-out for many G protein-coupled receptors.
In turn, `CC1(C)Cc2cc(C#N)c(C#N)cc2/C(=C/C(=O)C2CCOCC2)N1` [46(3), (Z)-2-(6,7-dicyano-3,3-dimethyl-3,4-dihydro-(2H)-isoquinolin-1-ylidene)-1-(tetrahydropyran-4-yl)ethan-1-one] gave an IC50 of 0.0053 µM.
`Cc1cc2c(cc1O)/C(=C/C(=O)C13CC4CC(CC(C4)C1)C3)NC(C)(C)C2` [47(4), (Z)-2-(7-hydroxy-3,3,6-trimethyl-3,4-dihydro-(2H)-isoquinolin-1-ylidene)-1-(adamantan-1-yl)ethan-1-one]: inhibition was half-maximal at 0.0052 µM (IC50).
With `Cc1cc2c(cc1O)/C(=C/C(=O)C1CCCCCC1)NC(C)(C)C2` [47(6), (Z)-2-(7-hydroxy-3,3,6-trimethyl-3,4-dihydro-(2H)-isoquinolin-1-ylidene)-1-cycloheptylethan-1-one], the IC50 came to 0.0041 µM.
On the same count and under the same terms, the same measure for `COc1ccc2c(c1)C(C)(C)N/C2=C\C(=O)c1ccccc1OC` [57(2), (Z)-2-(5-methoxy-3,3-dimethyl-2,3-dihydro-(2H)-isoindol-1-ylidene)-1-(2-methoxyphenyl)ethan-1-one]: 0.0033 µM.

The next assay has as its target T2, PDE7 (Homo sapiens, UniProt Q13946).
Assay: not given
As to conditions: J. Biol. Chem., 268, 12925 (1993); cited from earlier work.
Turning to `COc1ccc(C2CNC(=O)C2)cc1OC1CCCC1` (stereo not shown) [rolipram], the “inhibition of PDE7” value is “not inhibited”.

A further assay concerns the target T2, PDE7. The experiment in a line: In vitro enzyme assay: PDE7 inhibitory activity. The assay is classed as biochemical. Set-up: endogenous in cells; host or cells: HuT78 cells; soluble fraction separated on a MonoQ anion-exchange column. As to conditions: PDE7 fraction from HuT78 cells, 30 minutes at room temperature. As to the method:
HuT78 cells (derived from human T cell lymphocyte) were cultured in PRMI1640 medium containing 10% bovine fetus serum. 2 L of cells (approximately 8×10^8 cells) were collected, and they were homogenized in a buffer [50 mmol/l tris hydrochloric acid buffer containing 1 mmol/l dithiothreitol (DTT), 2 mmol/l ethylenediamine tetraacetate disodium (EDTA-2Na). After centrifugation (50,000 rpm, 4° C., 1 hour), the supernatant was collected, and filtered over 0.22 μm filter and the filtrate was fractionated by column chromatography on MonoQ (Pharmacia, hard negative ion exchange column) using the filtrate as soluble portion. The PDE activity of the fraction eluted by the concentration gradient of NaCl of 0-0.8 mol/L was measured using 1 μmol/l of cAMP as a substrate. Fractions where PDE activity is not inhibited by 10 μmol/l of rolipram ([…]) are collected. As to the PDE activity of these fractions, substrate-specificity against cAMP and Michaelis-Menten constant were measured and sensitivity to rolipram was confirmed. Then the fractions which show specificity and high affinity to cAMP which are non-sensitive fractions to rolipram were identified as PDE7. The fractions were used as an enzyme liquor for the measurement of PDE inhibitory activity.
PDE7 inhibitory activity of the compound of the present invention of was evaluated by the following method. 70 μl of diluted enzyme solution, 10 μl of the solution of the compound of the present invention (10% in DMSO), 10 μl of reaction buffer solution [50 mmol/l MgCl2, 1 mg/ml bovine serum albumin, 200 mmol/l tris hydrochloric acid buffer (pH 8.0) containing 40 mmol/l 2-mercaptoethanol] in 96 well plate and it was incubated for 30 minutes at room temperature. It was microwaved for 2.5 minutes to terminate the reaction. It was centrifuged (2,000 rpm for 1 minute) and thereto was added 10 μl of 1 mg/ml snake venom (Sigma, cat. V7000) and it was incubated for 30 minutes at room temperature. The […] (50 μl) was applied to alumina column (100 μl). Purified ^3H-adenosine was eluted with 0.005N hydrochloric acid (80 μl) and its radioactivity of the elute was measured.
PDE7 inhibitory activity of the present invention was evaluated by the activity inhibitory percentage calculated from the following equation. Activity inhibitory percentage (%)=(1-radioactivity in the presence of the compound of the present invention/radioactivity in the absence of the compound of the present invention)×100
As for `COc1ccc2c(c1)/C(=C/C(=O)c1ccc(C#N)cc1)NC(C)(C)C2` [11(35), (Z)-2-(7-methoxy-3,3-dimethyl-3,4-dihydro-(2H)-isoquinolin-1-ylidene)-1-(4-cyanophenyl)ethan-1-one], half-maximal inhibition (IC50) was put at 0.15 µM.
`COc1ccccc1C(=O)/C=C1\NC(C)(C)Cc2ccc(Cl)cc21` [11(43), (Z)-2-(7-chloro-3,3-dimethyl-3,4-dihydro-(2H)-isoquinolin-1-ylidene)-1-(2-methoxyphenyl)ethan-1-one] displayed an IC50 of 0.97 µM.
Take `CC1(C)Cc2ccc(Cl)cc2/C(=C/C(=O)C23CC4CC(CC(C4)C2)C3)N1` [11(79), (Z)-2-(7-chloro-3,3-dimethyl-3,4-dihydro-(2H)-isoquinolin-1-ylidene)-1-(adamantan-1-yl)ethan-1-one]: half-maximal inhibition (IC50) was put at 0.76 µM.
As to `CNc1ccc2c(c1)/C(=C/C(=O)c1ccc(C#N)cc1)NC(C)(C)C2` [11(162), (Z)-2-(7-methylamino-3,3-dimethyl-3,4-dihydro-(2H)-isoquinolin-1-ylidene)-1-(4-cyanophenyl)ethan-1-one], 0.37 µM corresponded to half-maximal inhibition (IC50).
In turn, `COc1ccc2c(c1)CC(C)(C)N/C2=C\C(=O)C1CCCCC1` [12(7), (Z)-2-(6-methoxy-3,3-dimethyl-3,4-dihydro-(2H)-isoquinolin-1-ylidene)-1-cyclohexylethan-1-one] gave an IC50 of 0.27 µM.
`COc1ccccc1C(=O)/C=C1\NC(C)(C)Cc2cc(Cl)ccc21` [12(15), (Z)-2-(6-chloro-3,3-dimethyl-3,4-dihydro-(2H)-isoquinolin-1-ylidene)-1-(2-methoxyphenyl)ethan-1-one]: the IC50 came out at 1.1 µM.
Same read-out and setting: next, `COc1ccc2c(c1)/C(=C/C(=O)c1ccc(N)cc1)NC2(C)C` [Example 58, (Z)-2-(6-methoxy-3,3-dimethyl-2,3-dihydro-(2H)-isoindol-1-ylidene)-1-(4-aminophenyl)ethan-1-one]: 0.023 µM; `COc1ccc2c(c1)/C(=C/C(=O)c1ccc(NC(N)=O)cc1)NC(C)(C)C2` [Example 73, (Z)-2-(7-methoxy-3,3-dimethyl-3,4-dihydro-(2H)-isoquinolin-1-ylidene)-1-(4-((aminocarbonyl)amino)phenyl)ethan-1-one]: 0.027 µM.

The record behind these values is patent US7378428B2, “Nitrogen-containing bicyclic compounds and drugs containing the same as the active ingredient” (Ono Pharmaceutical Co., Ltd., priority 2002, dated 2008).
